Data taken from a melting point compilation (Tetko et al.).

| melting point [°C] | SMILES |
| --- | --- |
| 183 to 185 | O=C(O)c1cc(S(=O)(=O)N2CCOCC2)ccc1Cl |
| 95 to 97 | Cc1cc(C)cc(-n2nc(C)cc2N)c1 |
| 19 to 21 | O=C(O)CSc1cccc(C(F)(F)F)c1 |
| 215 to 217 | Nc1cc(N2C(=O)CCC2=O)ccc1F |
| 58 to 60 | COc1ccc(N)cc1Br |
| 93 to 95 | CN(C)C(=O)c1ccc(C#N)cc1 |
| 113 to 115 | Cc1cc(C)c2nc(NN)cc(C)c2c1 |
| 89 to 91 | CCC(C)NS(=O)(=O)c1cccc(N)c1 (stereo not drawn) |
| 75 to 77 | O=C(c1ccc(F)cc1Cl)N1CCNCC1 |
| 59 to 61 | OC1CCc2c(F)cccc21 (stereo not drawn) |
| 69 to 71 | COc1cc(C)nc(CO)c1 |
| 192 to 194 | CS(=O)(=O)c1ccc2nnn(O)c2c1 |
| 125 to 127 | CSCCC(C(=O)O)N1C(=O)c2ccccc2C1=O (stereo not drawn) |
| 186 to 188 | O=C(O)c1cccc(S(=O)(=O)Nc2ccccc2Cl)c1 |
| 192 to 194 | COc1ccc(S(=O)(=O)N(C)C)cc1N |
| 79 to 81 | CCOC(=O)c1ccc2c(c1)CCCN2 |
| 191 to 193 | N#Cc1ccc(CC(N)=O)cc1 |
| 69 to 71 | Cc1ccc(S(=O)(=O)Cl)cc1Br |
| 76 to 78 | C=CCc1cc(C(=O)OC)cc(OC)c1O |
| 167 to 170 | Cc1cc(C)c(C(N)=O)c(S)n1 |
| 254 to 256 | O=C(COc1ccccc1)Nc1ccc(O)cc1C(=O)O |
| 106 to 108 | Cc1ccc(SCCC(=O)NN)cc1 |
| 120 to 122 | O=C1C=CC=NC1=C(O)Nc1cccnc1 |
| 89 to 91 | CCn1c(C)cc(C(=O)CCl)c1C |
| 84 to 86 | CC(N)(C(N)=O)c1cccc(C(F)(F)F)c1 (stereo not drawn) |
| 36 to 38 | CC(Br)c1cccc2ccccc12 (stereo not drawn) |

| melting point [°C] | SMILES |
| --- | --- |
| 101 to 103 | O=C(O)Cc1cc(Cl)ccc1Cl |
| 37 to 39 | Cc1cc(Cl)ccc1OCCCC(=O)NN |
| 229 to 231 | Cc1cc(C(=O)O)cc(S(C)(=O)=O)c1F |
| 47 to 49 | CCCOc1ccc(Br)cc1C=O |
| 184 to 186 | CCC(C(=O)O)n1nnc(-c2ccc(Cl)cc2)n1 (stereo not drawn) |
| 129 to 131 | Cc1nn2c(CO)c(C)nc2s1 |
| 96 to 98 | CC(O)c1nc2ccccc2n1C(F)F (stereo not drawn) |
| 223 to 225 | Cc1cc(=O)c(C(=O)O)nn1-c1cccc(Cl)c1 |
| 112 to 114 | CS(=O)(=O)c1cc(S(=O)(=O)Cl)ccc1F |
| 179 to 181 | CCc1c(C(=O)O)nnn1-c1cccc(N)c1 |
| 169 to 171 | O=C(O)CCc1ncc(-c2ccc(F)cc2F)o1 |
| 63 to 65 | CCCNC(=O)c1cccnc1Cl |
| 153 to 155 | Cc1ccc(C(C)C)cc1OCC(=O)O |
| 239 to 241 | O=C(Nc1ccc(-n2cnc3ccccc32)nc1)OCC(F)(F)F |
| 83 to 85 | COCc1cc([N+](=O)[O-])ccc1N |
| 95 to 99 | CCN(CC)S(=O)(=O)c1cc(N)ccc1Cl |
| 78 to 80 | COc1ccccc1CCNC(=O)CCl |
| 107 to 111 | Cc1cc(C(=O)C(C)Cl)c(C)n1-c1ccc(Cl)cc1 (stereo not drawn) |
| 155 to 157 | O=C(O)c1ccc(Oc2ccc(F)cc2[N+](=O)[O-])c(Cl)c1 |
| 177 to 179 | O=C(O)c1nccnc1C(=O)Nc1ccc(F)cc1 |
| 95 to 101 | CCCCc1ccc2nc(N)sc2c1 |
| 89 to 91 | Cc1cc(Br)cc([N+](=O)[O-])c1O |
| 128 to 130 | Cc1ccccc1-c1cc(N)n(CCO)n1 |
| 229 to 231 | O=C(O)c1cc(-c2ccc(F)cc2)nc2onc(C3CC3)c12 |
| 66 to 68 | CCN(C(=O)OC(C)(C)C)C(C#N)c1cccnc1 (stereo not drawn) |
| 146 to 149 | CCc1ccccc1Nc1nc(N)nc(CCl)n1 |

| melting point [°C] | SMILES |
| --- | --- |
| 156 to 158 | O=C(Nc1ccc(-n2cccn2)c(F)c1)OCC(F)(F)F |
| 171 to 173 | O=c1oc2ccc(O)cc2s1 |
| 114 to 116 | O=C(O)c1ccccc1SC(F)F |
| 259 to 261 | CC(=O)Nc1ccc(F)c(C(=O)O)c1 |
| 188 to 190 | O=C(O)CC(n1cnc2sccc2c1=O)C(F)(F)F (stereo not drawn) |
| 136 to 138 | NC(=O)CCNc1ccccc1[N+](=O)[O-] |
| 128 to 130 | O=C(NC1CC1)C(Cl)c1ccccc1 (stereo not drawn) |
| 108 to 110 | NNC(=O)Cn1cnc2ccccc21 |
| 153 to 155 | Cc1ccc(C)c(OCC(=O)NN)c1 |
| 163 to 165 | O=C(O)C1CCCN(C(=O)c2ccc(Cl)c(Cl)c2)C1 (stereo not drawn) |
| 166 to 168 | CC(N)c1cccc(O)c1 (stereo not drawn) |
| 131 to 133 | COC(=O)c1nc(Cc2ccccc2Cl)n2ccccc12 |
| 152 to 154 | O=C(O)c1ccc(C(F)(F)C(F)(F)F)cc1 |
| 61 to 63 | CCOC(=O)C(=O)CC(=O)c1ccc2c(c1)OCO2 |
| 126 to 128 | CCNCc1cccc(NC(=O)c2cc(Cl)c[nH]2)c1 |
| 143 to 145 | NC(=O)COc1ccc(Cl)cc1S(=O)(=O)Cl |
| 259 to 261 | Cc1nc(-c2ccc(N)cc2)cc(=O)[nH]1 |
| 173 to 175 | Nc1ccc(C=O)cc1[N+](=O)[O-] |
| 92 to 94 | COc1cc(C(C)=O)ccc1SC |
| 105 to 107 | Cc1ccc(NC(=O)C(C)Cl)c(F)c1 (stereo not drawn) |
| 129 to 131 | CCCc1c(C(=O)O)nnn1-c1cccc(Cl)c1 |
| 165 to 167 | Cc1ccc(-c2nc(-c3ccccc3)sc2CC(=O)O)cc1 |
| 87 to 89 | Cc1cccc(N)c1C(=O)N1CCCC1 |
| 91 to 93 | CCNS(=O)(=O)c1ccc(Br)c(C)c1 |
| 43 to 45 | Cc1cc(C=O)c(C)n1-c1nccs1 |
| 141 to 143 | O=C(O)CCNC(=O)c1ccc(F)cc1Cl |

The next lines start with the compound.

| SMILES | melting point [°C] |
| --- | --- |
| O=[N+]([O-])c1ccc(Cc2nnn[nH]2)cc1 | 178 to 180 |
| Cc1nn(CC(C)C)c(Cl)c1C(=O)O | 128 to 130 |
| C1CN(CCC23CC4CC(CC(C4)C2)C3)CCN1 | 76 to 78 |
| OC1CCN(c2cnnc3ccccc23)CC1 | 84 to 86 |
| N#Cc1ccc(Oc2ccc(N)cc2)cc1 | 110 to 112 |
| CC(C)(C)C1CCc2[nH]c(=O)sc2C1 (stereo not drawn) | 205 to 207 |
| CC(C)c1ccc(-c2nc(CSc3nnc(N)[nH]3)cs2)cc1 | 156 to 158 |
| CC1(C)CCC(N)(C(N)=O)CC1 | 149 to 151 |
| NC(=S)Cc1nnc2n1CCCCC2 | 227 to 229 |
| Nc1nnc(SCc2ccc(F)cc2)s1 | 145 to 147 |
| O=C(O)c1cnc2cc3c(cc2c1O)OCCO3 | 274 to 276 |
| O=C(CCl)N(C1CCCC1)C1CCS(=O)(=O)C1 (stereo not drawn) | < 17 |
| O=C(O)c1ccc(N2CCCCC2=O)cc1 | 213 to 215 |
| NC1(c2nc(C(=O)O)c[nH]2)CCC1 | 273 to 275 |
| O=S(=O)(Cl)c1cc2c(cc1Cl)OCCO2 | 139 to 141 |
| O=Cc1ccc(OCc2cccc(F)c2)cc1 | 45 to 47 |
| CCOc1ccc(C(CN)c2c[nH]c3ccccc23)cc1OC (stereo not drawn) | 114 to 116 |
| N#CCc1ccc(Oc2ccc(N)cn2)cc1 | 67 to 69 |
| O=Cc1cc(CCl)ccc1O | 87 to 89 |
| CC1=NC2(CCCC2)C(=O)N1 | 66 to 68 |
| CC1CN(C(=O)c2cnn(C)c2N)CC(C)O1 (stereo not drawn) | 152 to 154 |
| [N-]=[N+]=Nc1ccc(Cl)cc1C(F)(F)F | 32 to 34 |

| SMILES | melting point [°C] |
| --- | --- |
| CC(C)(C)OC(=O)N1C2CCC1CC(CC(=O)O)C2 (stereo not drawn) | 104 to 106 |
| COc1ccc2c(-c3ccccc3)cc(Cl)nc2c1 | 100 to 102 |
| c1ccc2c(c1)CC(n1cccn1)CN2 (stereo not drawn) | 102 to 104 |
| CC(=O)CN1C(=O)COCC1=O | 77 to 79 |
| COc1ccc(CCNC(N)=S)cc1 | 166 to 168 |
| Nc1nc2c(OC(F)F)cccc2s1 | 144 to 146 |
| Cc1cc2n(n1)C(=O)C(C)C(=O)N2 (stereo not drawn) | 288 to 290 |
| Cc1nnc2cc(Cl)ncn12 | 122 to 124 |
| CC(=O)NNC(=O)CCl | 157 to 159 |
| CC1CNC(=Nc2ccc(C(C)C)cc2)S1 (stereo not drawn) | 109 to 111 |
| ClCc1cn(-c2ccccc2)nc1-c1ccccc1 | 87 to 89 |
| Fc1ccc(-c2cc[nH]n2)cc1 | 96 to 98 |
| O=C(O)CCCCOc1ccc2oc3ccccc3c2c1 | 114 to 116 |
| Cc1sc(N)nc1-c1ccc2c(c1)CCCO2 | 209 to 211 |
| O=c1[nH]c2cc(Br)cc(Cl)c2o1 | 189 to 191 |
| CC(C)(NS(C)(=O)=O)C(=O)O | 71 to 73 |
| C=CC(=O)NC(=O)NC12CC3CC(CC(C3)C1)C2 | 211 to 213 |
| CCOC(=O)c1cnn(-c2nc3ccccc3s2)c1N | 137 to 139 |
| O=C(O)C1C2C3CCC(C3)C12 (stereo not drawn) | 96 to 98 |
| Cc1[nH]c(-c2cccnc2)nc(=NN)c1C | 194 to 196 |
| O=C(O)CC#Cc1ccccc1 | 71 to 73 |
| O=C1CNC(=O)N1CCCCl | 90 to 92 |

| SMILES | melting point [°C] |
| --- | --- |
| Cc1cc(-c2ncc[nH]2)c(=O)[nH]n1 | 254 to 256 |
| O=C(O)c1ccccc1COc1ccccc1 | 126 to 128 |
| O=C(O)c1sccc1S(=O)(=O)N1CCCCC1CCO (stereo not drawn) | 121 to 123 |
| Nc1ncc(Br)cc1S(=O)(=O)Cl | 129 to 131 |
| O=C1CNC2CCCCC2N1 (stereo not drawn) | 121 to 123 |
| Cn1ncnc1N | 180 to 182 |
| Cn1c(=O)[nH]c(=O)c2cc(C(=O)O)cnc21 | 316 to 318 |
| O=Cc1cnc(-c2cnccn2)s1 | 159 to 161 |
| CCOC(=O)c1sc2nc(CN(C)C)nc(Cl)c2c1C | 114 to 116 |
| Cc1nc(Cl)c2c(-c3ccccc3)csc2n1 | 169 to 173 |
| Clc1nc(Cl)c2ccccc2n1 | 117 to 119 |
| O=C(O)c1cnn(Cc2ccccc2)c1 | 149 to 151 |
| CC(C)c1noc(N)n1 | 101 to 103 |
| Nc1cc(CSCCO)ccn1 | 90 to 92 |
| CC(C)(CCC(=O)O)NC(=O)OC(C)(C)C | 91 to 93 |
| CCOC(=O)c1c(N)oc(C)c1C(C)=O | 135 to 137 |
| CC(C)CNc1c(N)n(CC(C)C)c(=O)[nH]c1=O | 197 to 199 |
| N#Cc1ccccc1CN1CCCC1C(N)=O (stereo not drawn) | 88 to 90 |
| CC(C)NC(=O)CNS(=O)(=O)CCC(=O)O | 125 to 127 |
| O=S1(=O)NC=Nc2ccccc21 | 222 to 224 |
| Cc1[nH]c(=O)sc1C | 146 to 148 |
